Among the data in paper PMC8304516, “A Fungal Defensin Targets the SARS−CoV−2 Spike Receptor−Binding Domain” (Journal of Fungi, 2021) are Kd values, retold here.

Bridge positions count the residues as written; N and C are the ends. Peptide text beside a SMILES is read from it.

The target in one test is RBD. The following applies: binding to RBD; cited from earlier work.
Another test has as its target Spike RBD (SARS-CoV-2) (UniProt P0DTC2). The conditions noted are these: cited from earlier work.
The target of another test is SARS−CoV−2 Spike RBD (Severe acute respiratory syndrome coronavirus 2, UniProt P0DTC2). Briefly: biochemical. The class given is binding. The following applies: KD; SD.

As for human β−defensin 2 [hBD−2], the Kd – broadly, a measure of binding affinity in units of concentration – on RBD was about 300 nM.

With “human beta-defensin 2 (from UniProt O15263)”, the Kd with Spike RBD (SARS-CoV-2) is 300 nM.

On to `CC[C@H](C)[C@@H]1NC(=O)[C@H](CO)NC(=O)[C@H](CC(C)C)NC(=O)[C@@H]2CSSC[C@@H](C(=O)NCC(=O)N[C@@H](CCCCN)C(=O)N[C@@H](CCC(N)=O)C(=O)O)NC(=O)[C@H]([C@@H](C)O)NC(=O)[C@@H]3CSSC[C@H](NC(=O)[C@H](CCC(=O)O)NC(=O)[C@H](CC(N)=O)NC(=O)[C@H](CCCCN)NC(=O)[C@H](CC(N)=O)NC(=O)[C@H](Cc4ccccc4)NC(=O)[C@@H]4CCCN4C(=O)[C@@H](NC(=O)CNC(=O)[C@H](Cc4ccccc4)NC(=O)CN)CSSC[C@H](NC(=O)[C@H](Cc4ccccc4)NC(=O)CNC(=O)[C@H](Cc4ccccc4)NC(=O)[C@H](CCCCN)NC(=O)[C@H](CCCNC(=N)N)NC(=O)CNC1=O)C(=O)N[C@@H](C)C(=O)NCC(=O)N1CCC[C@H]1C(=O)N[C@@H](CC(C)C)C(=O)N[C@@H](CCCNC(=N)N)C(=O)N[C@@H](C)C(=O)N[C@@H]([C@@H](C)O)C(=O)N3)C(=O)N[C@@H](Cc1c[nH]cn1)C(=O)N[C@@H](C)C(=O)N[C@@H](Cc1c[nH]cn1)C(=O)N2` [rE8K] (H-GFGCPFNKNECHAHCLSIGRKFGFCAGPLRATCTCGKQ-OH; disulfide 4-25, 11-33, 15-35), for which the affinity on SARS−CoV−2 Spike RBD, expressed as Kd, was 1900 ± 570 nM.
